Measurements reported in PMC7211202 (Investigational New Drugs, 2019).
Several values for one entry are separate records, joined by “and”; a condition that tells them apart may be missing. Equal entries are not always repeated.

Assay: Patient incidence of adverse events (CTCAE version 4.0)
Assay type: in vivo
From the text: Each patient was monitored for 21 days for the occurrence of dose-limiting toxicities (DLTs), defined as febrile neutropenia, neutropenic infection, grade 4 neutropenia lasting >7 days, grade ≥ 3 thrombocytopenia lasting >7 days (solid tumors only), grade 3 thrombocytopenia with grade ≥ 2 bleeding (solid tumors only), grade 3 or 4 thrombocytopenia with grade > 1 bleeding (multiple myeloma only), grade 4 thrombocytopenia (solid tumors only), or grade 4 thrombocytopenia lasting >14 days (multiple myeloma only), or as grade ≥ 3 nausea, vomiting, or diarrhea after support; grade 3 fatigue lasting >7 days; any other grade ≥ 3 adverse event (AE); grade ≥ 3 kidney injury (multiple myeloma only), or treatment-related AEs not returning to grade ≤ 1 (solid tumors only) per Common Terminology Criteria for Adverse Events (CTCAE), version 4.0. The MTD was defined as the maximum dose, at which the probability of a DLT was ≤25% in Part 1A and ≤ 33% in Parts 1B and 1C. Treatment continued until disease progression, intolerable toxicity, or withdrawal of consent.
AEs were recorded for all enrolled patients.

[1] = 240-mg dose expansion, Other Solid (n = 16)
[2] = 240-mg dose expansion, Total (n = 68)
[3] = 240-mg dose expansion, WDLPS (n = 10)
[4] = 240-mg dose expansion, all patients

CC(C)[C@@H](CS(=O)(=O)C(C)C)N1C(=O)[C@@](C)(CC(=O)O)C[C@H](c2cccc(Cl)c2)[C@H]1c1ccc(Cl)cc1 [AMG 232]
Serious, treatment-related AE: Hyperlipasemia (grade 3) [1]: 0 n (%) | Serious, treatment-related AE: Nausea (grade 3) [1]: 0 n (%) | Serious, treatment-related AE: Pulmonary embolism (grade 3) [1]: 0 n (%) | Serious, treatment-related AE: Vomiting (grade 3) [1]: 0 n (%) | Treatment-related AE: Anemia [1]: 3 (19) n (%) | Treatment-related AE: Asthenia [1]: 2 (13) n (%) | Treatment-related AE: Decrease appetite [1]: 4 (25) n (%) | Treatment-related AE: Diarrhea [1]: 8 (50) n (%) | Treatment-related AE: Dysgeusia [1]: 2 (13) n (%) | Treatment-related AE: Fatigue [1]: 6 (38) n (%) | Treatment-related AE: Nausea [1]: 11 (69) n (%) | Treatment-related AE: Neutropenia [1]: 1 (6) n (%) | Treatment-related AE: Thrombocytopenia [1]: 2 (13) n (%) | Treatment-related AE: Vomiting [1]: 8 (50) n (%) | Patients with any treatment-emergent AE [2]: 67 (99%) n (%) and 67 (99) n (%) | Patients with any treatment-emergent serious AE [2]: 29 (43%) n (%) and 29 (43) n (%) | Patients with any treatment-related AE, Grade 3 [2]: 25 (37) n (%) | Patients with any treatment-related AE, Grade 4 [2]: 8 (12) n (%) | Patients with any treatment-related AE, Grade 5 [2]: 0 n (%) | Serious, treatment-related AE: Dehydration (grade 3) [2]: 1 (2) n (%) | Serious, treatment-related AE: Diarrhea (grade 3) [2]: 1 (2) n (%) | Serious, treatment-related AE: Hyperamylasemia (grade 3) [2]: 1 (2) n (%) | Serious, treatment-related AE: Hyperlipasemia (grade 3) [2]: 1 (2) n (%) | Serious, treatment-related AE: Nausea (grade 3) [2]: 1 (2) n (%) | Serious, treatment-related AE: Pulmonary embolism (grade 3) [2]: 1 (2) n (%) | Serious, treatment-related AE: Vomiting (grade 3) [2]: 3 (4) n (%) | Treatment-related AE: Anemia [2]: 10 (15) n (%) | Treatment-related AE: Asthenia [2]: 9 (13) n (%) | Treatment-related AE: Decrease appetite [2]: 28 (41) n (%) | Treatment-related AE: Diarrhea [2]: 46 (68) n (%) | Treatment-related AE: Dysgeusia [2]: 9 (13) n (%) | Treatment-related AE: Fatigue [2]: 32 (47) n (%) | Treatment-related AE: Nausea [2]: 46 (68) n (%) | Treatment-related AE: Neutropenia [2]: 12 (18) n (%) | Treatment-related AE: Thrombocytopenia [2]: 14 (21) n (%) | Treatment-related AE: Vomiting [2]: 32 (47) n (%) | Patients with any serious, treatment-related AE [3]: 2 (20) n (%) | Patients with any treatment-emergent AE [3]: 10 (100) n (%) | Patients with any treatment-emergent serious AE [3]: 5 (50) n (%) | Patients with any treatment-related AE [3]: 10 (100) n (%) | Patients with any treatment-related AE, Grade 3 [3]: 6 (60) n (%) | Patients with any treatment-related AE, Grade 4 [3]: 3 (30) n (%) | Patients with any treatment-related AE, Grade 5 [3]: 0 n (%) | Serious, treatment-related AE: Dehydration (grade 3) [3]: 1 (10) n (%) | Serious, treatment-related AE: Diarrhea (grade 3) [3]: 0 n (%) | Serious, treatment-related AE: Hyperamylasemia (grade 3) [3]: 0 n (%) | Serious, treatment-related AE: Hyperlipasemia (grade 3) [3]: 0 n (%) | Serious, treatment-related AE: Nausea (grade 3) [3]: 0 n (%) | Serious, treatment-related AE: Pulmonary embolism (grade 3) [3]: 1 (10) n (%) | Serious, treatment-related AE: Vomiting (grade 3) [3]: 0 n (%) | Treatment-related AE: Anemia [3]: 5 (50) n (%) | Treatment-related AE: Asthenia [3]: 0 n (%) | Treatment-related AE: Decrease appetite [3]: 7 (70) n (%) | Treatment-related AE: Diarrhea [3]: 9 (90) n (%) | Treatment-related AE: Dysgeusia [3]: 1 (10) n (%) | Treatment-related AE: Fatigue [3]: 8 (80) n (%) | Treatment-related AE: Nausea [3]: 10 (100) n (%) | Treatment-related AE: Thrombocytopenia [3]: 6 (60) n (%) | Treatment-related AE: Vomiting [3]: 7 (70) n (%) | Treatment-emergent AE: anemia [4]: 25% | Treatment-emergent AE: decreased appetite [4]: 41% | Treatment-emergent AE: diarrhea [4]: 72% | Treatment-emergent AE: fatigue [4]: 53% | Treatment-emergent AE: nausea [4]: 72% | Treatment-emergent AE: thrombocytopenia [4]: 24% | Treatment-emergent AE: vomiting [4]: 59% | Treatment-related AE: Diarrhea [4]: 68% | Treatment-related AE: Fatigue [4]: 47% | Treatment-related AE: Nausea [4]: 68% | Treatment-related AE: Thrombocytopenia [4]: 21% | Treatment-related AE: Vomiting [4]: 47% | Treatment-related AE: decreased appetite [4]: 41% | Patients with fatal AEs while on study (240-mg dose expansion, two with disease progression and one with physical deterioration): Three | AE resulting in treatment discontinuation: febrile neutropenia (dose escalation): 1 n | AE resulting in treatment discontinuation: neutropenia (dose escalation): 2 n | AE resulting in treatment discontinuation: thrombocytopenia (dose escalation): 5 n | Patients with AEs resulting in treatment discontinuation (dose escalation): eight | Patients with fatal AEs of disease progression while on study (dose escalation): Four | Patients with any treatment-emergent AE (dose escalation, 15 mg (n = 3)): 1 (33) n (%) | Patients with any treatment-emergent serious AE (dose escalation, 15 mg (n = 3)): 1 (33) n (%) | Patients with any treatment-related AE (dose escalation, 15 mg (n = 3)): 1 (33) n (%) | Patients with any treatment-related AE, Grade 3 (dose escalation, 15 mg (n = 3)): 0 n (%) | Patients with any treatment-related AE, Grade 4 (dose escalation, 15 mg (n = 3)): 0 n (%) | Patients with any treatment-related AE, Grade 5 (dose escalation, 15 mg (n = 3)): 0 n (%) | Patients with any treatment-related serious AE (dose escalation, 15 mg (n = 3)): 0 n (%) | Treatment-related AE: Abdominal pain (dose escalation, 15 mg (n = 3)): 0 n (%) | Treatment-related AE: Anemia (dose escalation, 15 mg (n = 3)): 0 n (%) | Treatment-related AE: Asthenia (dose escalation, 15 mg (n = 3)): 0 n (%) | Treatment-related AE: Decrease appetite (dose escalation, 15 mg (n = 3)): 0 n (%) | Treatment-related AE: Diarrhea (dose escalation, 15 mg (n = 3)): 0 n (%) | Treatment-related AE: Dysgeusia (dose escalation, 15 mg (n = 3)): 0 n (%) | Treatment-related AE: Fatigue (dose escalation, 15 mg (n = 3)): 1 (33) n (%) | Treatment-related AE: Myalgia (dose escalation, 15 mg (n = 3)): 0 n (%) | Treatment-related AE: Nausea (dose escalation, 15 mg (n = 3)): 0 n (%) | Treatment-related AE: Neutropenia (dose escalation, 15 mg (n = 3)): 0 n (%) | Treatment-related AE: Thrombocytopenia (dose escalation, 15 mg (n = 3)): 0 n (%) | Treatment-related AE: Upper abdominal pain (dose escalation, 15 mg (n = 3)): 0 n (%) | Treatment-related AE: Vomiting (dose escalation, 15 mg (n = 3)): 0 n (%) | Treatment-related serious AE: Abdominal pain (grade 2) (dose escalation, 15 mg (n = 3)): 0 n (%) | Treatment-related serious AE: Dehydration (grade 2) (dose escalation, 15 mg (n = 3)): 0 n (%) | Treatment-related serious AE: Diarrhea (dose escalation, 15 mg (n = 3)): 0 n (%) | Treatment-related serious AE: Diarrhea, Grade 2 (dose escalation, 15 mg (n = 3)): 0 n (%) | Treatment-related serious AE: Diarrhea, Grade 3 (dose escalation, 15 mg (n = 3)): 0 n (%) | Treatment-related serious AE: Febrile neutropenia (grade 3) (dose escalation, 15 mg (n = 3)): 0 n (%) | Treatment-related serious AE: Hematemesis (grade 3) (dose escalation, 15 mg (n = 3)): 0 n (%) | Treatment-related serious AE: Nausea (grade 3) (dose escalation, 15 mg (n = 3)): 0 n (%) | Treatment-related serious AE: Neutropenia (grade 4) (dose escalation, 15 mg (n = 3)): 0 n (%) | Treatment-related serious AE: Non-cardiac chest pain (grade 3) (dose escalation, 15 mg (n = 3)): 0 n (%) | Treatment-related serious AE: Thrombocytopenia (grade 4) (dose escalation, 15 mg (n = 3)): 0 n (%) | Treatment-related serious AE: Vomiting (dose escalation, 15 mg (n = 3)): 0 n (%) | Treatment-related serious AE: Vomiting, Grade 2 (dose escalation, 15 mg (n = 3)): 0 n (%) | Treatment-related serious AE: Vomiting, Grade 3 (dose escalation, 15 mg (n = 3)): 0 n (%) | Patients with any treatment-emergent AE (dose escalation, 30 mg (n = 3)): 3 (100) n (%) | Patients with any treatment-emergent serious AE (dose escalation, 30 mg (n = 3)): 0 n (%) | Patients with any treatment-related AE (dose escalation, 30 mg (n = 3)): 1 (33) n (%) | Patients with any treatment-related AE, Grade 3 (dose escalation, 30 mg (n = 3)): 0 n (%) | Patients with any treatment-related AE, Grade 4 (dose escalation, 30 mg (n = 3)): 0 n (%) | Patients with any treatment-related AE, Grade 5 (dose escalation, 30 mg (n = 3)): 0 n (%) | Patients with any treatment-related serious AE (dose escalation, 30 mg (n = 3)): 0 n (%) | Treatment-related AE: Abdominal pain (dose escalation, 30 mg (n = 3)): 0 n (%) | Treatment-related AE: Anemia (dose escalation, 30 mg (n = 3)): 0 n (%) | Treatment-related AE: Asthenia (dose escalation, 30 mg (n = 3)): 0 n (%) | Treatment-related AE: Decrease appetite (dose escalation, 30 mg (n = 3)): 0 n (%) | Treatment-related AE: Diarrhea (dose escalation, 30 mg (n = 3)): 1 (33) n (%) | Treatment-related AE: Dysgeusia (dose escalation, 30 mg (n = 3)): 0 n (%) | Treatment-related AE: Fatigue (dose escalation, 30 mg (n = 3)): 1 (33) n (%) | Treatment-related AE: Myalgia (dose escalation, 30 mg (n = 3)): 0 n (%) | Treatment-related AE: Nausea (dose escalation, 30 mg (n = 3)): 1 (33) n (%) | Treatment-related AE: Neutropenia (dose escalation, 30 mg (n = 3)): 0 n (%) | Treatment-related AE: Thrombocytopenia (dose escalation, 30 mg (n = 3)): 0 n (%) | Treatment-related AE: Upper abdominal pain (dose escalation, 30 mg (n = 3)): 0 n (%) | Treatment-related AE: Vomiting (dose escalation, 30 mg (n = 3)): 1 (33) n (%) | Treatment-related serious AE: Abdominal pain (grade 2) (dose escalation, 30 mg (n = 3)): 0 n (%)
